Assay results: patent US20140088192A1, “SUBCUTANEOUSLY INFUSIBLE LEVODOPA PRODRUG COMPOSITIONS AND METHODS OF INFUSION” (SynAgile Corporation, priority 2010, published 2014)

Experiments:
[1] = test system: volunteer; test: Intramuscular / subcutaneous infusion of LDEE.HCl in human volunteers, local tolerability; assay type: in vivo
Protocol: The flow rate was 0.6 mL/h. […] The protrusion disappeared after 2 days.
A healthy volunteer took one Lodosyn (carbidopa), 25 mg pill, at each of the morning, midday and evening of the day preceding the infusion, and in the morning, midday and evening of the day of the infusion. After adjusting the pH of a stored solution of pH 2.4 and 2.5 mL volume of 2.9 M LDEE.HCl by adding to it 0.16 mL of 1.5 M trisodium citrate solution to about pH 4.6±0.1, a 2.7 M LDEE.HCl solution was obtained. Using a Medtronic Minimed Paradigm 723, a Medtronic Minimed Silhouette, 43 inches, 17 mm cannula infusion set, a Medtronic Minimed Sil-Serter infusion set insertion system, the volunteer infused 0.67 mL of the 2.7 M LDEE.HCl solution into their abdomen over a period of 9 hours. The infusion site was 7-8 cm below the ribs. The initial 4 hr infusion was at a rate of 0.062 mL/hr (37.5 mg of LDEE/hr), followed by 0.082 mL/hr (50 mg of LDEE/hr) in the next 5 hours. The total infused volume contained 406 mg LDEE, the equivalent to 356 mg L-DOPA.
A healthy volunteer took one Lodosyn (carbidopa), 25 mg pill, at each of the evening preceding the infusion, and in the morning, midday and evening of the day of the infusion. After adjusting the pH to about pH 4.7±0.3 of a stored solution of pH 2.4 and 2.5 mL volume of 2.9 M LDEE.HCl by adding 0.16 mL of 1.5 M trisodium citrate solution, a 2.7 M LDEE.HCl solution was obtained. Using a Medtronic Minimed Paradigm 723, a Medtronic Minimed Silhouette, 43 inches, 17 mm cannula infusion set, and a Medtronic Minimed Sil-Serter infusion set insertion system, the a volunteer infused 0.67 mL of the 2.7 M LDEE.HCl solution into the frequently exercised and occasionally massaged outside of the upper arm over a period of 9 hours. The initial 4 hr infusion was at a rate of 0.062 mL/hr (37.5 mg of LDEE/hr), followed by 0.082 mL/hr (50 mg of LDEE/hr) in the next 5 hours. The total infused volume contained 400 mg LDEE, the equivalent to 351 mg L-DOPA.
A healthy volunteer took one Lodosyn (carbidopa), 25 mg pill, at each of the evening of the day preceding the infusion, and in the morning, mid-day and evening of the day of the infusion. 1 mL of the 2.9 M LDEE.HCl stored solution of pH 2.4, 0.04 mL of a 1.5 M trisodium citrate solution and 2 mL sterile water were syringed into the reservoir of a Medtronic Minimed Paradigm 723 pump. This pump and a Medtronic Minimed Silhouette, 43 inches, 17 mm cannula infusion set inserted with a Medtronic Minimed Sil-Serter infusion set insertion system were used. The volunteer infused 1.85 mL, or 396 mg LDEE (equivalent to 347 mg L-DOPA) of the now 3× diluted 0.95 M LDEE solution into their upper arm over a period of 9 hours at two rates: First near 37.5 mg/hr (0.175 mL/hr) for 4 hours then near 50 mg/hr (0.233 mL/hr) for 5 hours. During the course of the infusion the volunteer periodically exercised their arm and gently massaged the infusion site.
A healthy volunteer took one Lodosyn (carbidopa), 25 mg pill, at each of the evening of the day preceding the infusion, and in the morning, mid-day and evening of the day of the infusion. The reservoir of a Medtronic Minimed Paradigm 723 pump was primed (to assure that all of the 3 mL in the reservoir will be infused) then the reservoir was filled with 0.6 mL of the 2.9 M LDEE.HCl stored solution of pH 2.4, 0.024 mL of a 1.5 M trisodium citrate solution and 2.4 mL sterile water by syringing. The pump, a Medtronic Minimed Silhouette, 43 inches, 17 mm cannula infusion set, and a Medtronic Minimed Sil-Serter infusion set insertion system were used. The volunteer infused 3 mL, or 400 mg LDEE (equivalent to 350 mg L-DOPA) of the now 5× diluted (i.e. 0.58 M) LDEE solution into their upper arm over a period of 9 hours at a flow rate of 0.33 mL/hr. […] The infusion ended at 7:30 pm. […]

[2] = Estimated / projected shelf life and operational life (time to LD saturation); details: for storage time without LD precipitation: 2.5±0.5 M aqueous; for time remaining precipitate free: after 18 months refrigerated storage
Text: To minimize hydrolysis and LD precipitation, the LDE salt can be stored in its dry solid form, and dissolved in water or in an aqueous solution prior to use. Alternatively and preferably, the LDE salt can be dissolved, and stored as an aqueous solution at a pH and at a temperature where the rate of hydrolysis is slow. […] The operational life, meaning the life of the infused solution, is similarly pH dependent. The pH of a subcutaneously infused solution can be generally greater than about 4.0. […] To extend the shelf life, the solution may be optionally stored at a temperature below about 25° C., for example it may be refrigerated at about 5±3° C.
After flushing with nitrogen, the solution was kept for 7 days at 23±2° C. in a vial sealed with a grey elastomeric, substantially oxygen impermeable septum. […] An operational life of 4 days suffices for infusion.
After flushing with nitrogen, the solution was kept in a vial sealed with a grey, elastomeric oxygen impermeable septum.
After flushing with nitrogen, the solution was kept in a vial sealed with a grey elastomeric, oxygen impermeable septum.

[3] = intramuscular, right upper arm, about 0.45 mL of 2.3 M pH 4.5 over 45 min
[4] = s.c. abdomen, 0.67 mL of 2.7 M over 9 hours
[5] = s.c. exercised upper arm, 0.67 mL of 2.7 M over 9 hours
[6] = s.c. exercised upper arm, 1.85 mL of 0.95 M over 9 hours
[7] = s.c. upper arm, 3 mL of 0.58 M over 9 hours
[8] = s.c. upper arm, 10.7 mL of 0.48 M over 18 hours

In the case of `CCOC(=O)[C@@H](N)Cc1ccc(O)c(O)c1.Cl` [LDEE.HCl, LDEE Hydrochloride], the “time to disappearance of the protrusion” value ([1]; intramuscular, about 0.45 mL of 2.3 M pH 4.5) is reported as 2 days, the “local reaction after infusion” value [1, 3] is reported as “small nodule which spread after 4 hours into an about 1 mm high, 2-3 cm radius protrusion” and the “pain, inflammation, color change, sensitivity at the site” value [1, 3] is reported as “no pain, inflammation, color change or sensitivity”. The pain or irritation ([1]; s.c. abdomen, 0.24 mL of 2.3 M pH 4.5 over about 90 min in 8 boluses) was “felt no pain or irritation during or after the infusion”, the “course of induration after 24 hours” value [1, 4] was “became diffuse and partly, but not completely, subsided” and the other adverse events [1, 4] was “no other adverse events”. For the same compound, the “swelling / induration at infusion site” value [1, 4] was “Mild swelling was observed and an induration of approximately 2.5 cm diameter developed”, the pain or redness ([1]; s.c. abdomen, 0.67 mL of 2.7 M pH about 4.6 over 9 hours, oral carbidopa) was “virtually no pain or redness” and the course of swelling [1, 5] was “disappeared after a week”. The other adverse events [1, 5] was “no other adverse events of any kind”, the “swelling at infusion site at end of infusion” value [1, 5] was “about 7 cm long elongated mildly swollen region” and the pain or redness ([1]; s.c. exercised upper arm, 0.67 mL of 2.7 M pH about 4.7 over 9 hours, oral carbidopa) was “virtually no pain or redness”. For the same compound, the course of swelling [1, 6] was “disappeared gradually in about three days”, the other adverse events [1, 6] was “no other adverse events” and the “swelling at infusion site at end of infusion” value [1, 6] was “very slightly swollen region of about 4 cm diameter”. For the same compound, the pain or redness ([1]; s.c. exercised upper arm, 1.85 mL of 0.95 M over 9 hours, oral carbidopa) was “no pain or redness”, the adverse events [1, 7] was “no adverse events” and the “local findings at end of infusion” value [1, 7] was “very slight reddening of a 2×4 cm skin area and a very slightly harder than normal 2 cm diameter zone under the skin”. The “site on the following morning” value [1, 7] was “the skin and infused tissue appeared normal”, the pain during infusion ([1]; s.c. upper arm, 3 mL of 0.58 M over 9 hours, oral carbidopa) was “felt no pain during the infusion” and the adverse events [1, 8] was “no adverse events”. The swelling [1, 8] was “swelling most of which subsided within 8 hours”, the “time after which swelling was no longer visible” value [1, 8] was 12 h and the “pain, reddening, inflammation at end of infusion” value ([1]; s.c. upper arm, 10.7 mL of 0.48 M pH 4.8-5.0 (5.1 millimoles) over 18 hours, oral carbidopa) was “no pain, reddening or inflammation”. The “projected storage (shelf) life” value ([2]; 2.5 M solution at 4° C. (per Example 18)) was “greater than 4 years”, the projected shelf life ([2]; 2.5 M solution, pH 2.3, about 4° C.) was “about 4.7 years” and the “operational life (time to LD saturation)” value ([2]; 2.5 M, pH 4.5 citrate, 29° C.-30° C.) was 4 days. The “operational life, projection” value ([2]; 2.5 M, pH 4.5 citrate, 37° C. body temperature) was “about 2 days”, the “operational life (time to LD saturation)” value ([2]; 2.5 M, pH 4.5 citrate, about 23° C.) was “about 9 days” and the “storage time without LD precipitation” value ([2]; pH 2.5±0.5, about 5±3° C.) was “about 3 years”. For the same compound, the “storage time without LD precipitation” value ([2]; pH about 1.5 to about 3.5, about 5±3° C.) was “more than 1 year”, the “% of the LDEE.HCl hydrolyzed at which LD saturation is reached” value ([2]; 2.7 M LDEE.HCl, LD saturation about 17 grams per liter) was “about 3.4%” and the “Estimated pH 2.3 storage life at 4° C.” value ([2]; about 2.0 M LDEE.HCl solution) was 50 months. For the same compound, the “Estimated pH 2.3 storage life at 25° C.” value ([2]; about 2.0 M LDEE.HCl solution) was 2 months, the “Estimated pH 4.5 operational life at 30° C.” value ([2]; about 2.0 M LDEE.HCl solution) was 4 days and the “Estimated pH 4.5 operational life at 37° C.” value ([2]; about 2.0 M LDEE.HCl solution) was 2 days. The operational life ([2]; about 2.7 M, about pH 4.49, 40° C.) was > 48 h, the residual operational life ([2]; after 18 months at 4° C., then operational ambient temperature) was “more than 3 days” and the “time remaining precipitate free” value ([2]; pH raised to about 4.2±0.3, 30° C.) was “more than 3 days”. For the same compound, the “time remaining precipitate free” value ([2]; pH raised to about 4.2±0.3, 37° C.) was “more than 2 days”, the residual operational life ([2]; after one year at 4° C., then 23° C. ambient) was “greater than 4 days” and the “projected time free of LD precipitate” value ([2]; refrigerated pH 4.0 solution, 2.4 M) was “about 50 weeks”.
